Measured values as given in ChEMBL document CHEMBL1201862, “PubChem BioAssay data set” (2004).
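The compound was tested at five concentrations on cells cultured in 96-well plates, with a 48-hour exposure period. Abbreviation: GI50, concentration required for 50% inhibition of growth.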 Active and inactive are the calls of the source. No stated cut-off is given here; in the data, active = GI50 up to about 1.1 µM and inactive = higher.

Key:
Assay in all cases: inhibition of tumour cell growth, NCI panel, 48 h
LOX IMVI = system: LOX IMVI
HT-29 = system: HT-29
IGROV-1 = system: IGROV-1
NCI-H226 = system: NCI-H226
NCI-H522 = system: NCI-H522
Hs-578T = system: Hs-578T
OVCAR-5 = system: OVCAR-5
NCI-H23 = system: NCI-H23
SF-295 = system: SF-295
MCF7 = system: MCF7
HCT-15 = system: HCT-15
ACHN = system: ACHN
T47D = system: T47D
HOP-62 = system: HOP-62
UACC-257 = system: UACC-257
HCC 2998 = system: HCC 2998
MDA-MB-231 = system: MDA-MB-231
COLO 205 = system: COLO 205
SR = system: SR
OVCAR-4 = system: OVCAR-4
DU-145 = system: DU-145
SW-620 = system: SW-620
HCT-116 = system: HCT-116
786-0 = system: 786-0
SNB-19 = system: SNB-19
BT-549 = system: BT-549
K562 = system: K562
HL-60 = system: HL-60
SN12C = system: SN12C
UACC-62 = system: UACC-62
Malme-3M = system: Malme-3M
RPMI-8226 = system: RPMI-8226
OVCAR-3 = system: OVCAR-3
UO-31 = system: UO-31
SF-539 = system: SF-539
A549 = system: A549
KM12 = system: KM12
TK-10 = system: TK-10
CCRF-CEM = system: CCRF-CEM
MOLT-4 = system: MOLT-4
NCI-H460 = system: NCI-H460
SK-MEL-2 = system: SK-MEL-2
MDA-MB-435 = system: MDA-MB-435
M14 = system: M14
OVCAR-8 = system: OVCAR-8
U-251 = system: U-251
NCI/ADR-RES = system: NCI/ADR-RES
EKVX = system: EKVX
SK-MEL-28 = system: SK-MEL-28
SK-MEL-5 = system: SK-MEL-5
SF-268 = system: SF-268
SK-OV-3 = system: SK-OV-3
A498 = system: A498
PC-3 = system: PC-3
MDA-N = system: MDA-N
SNB-75 = system: SNB-75
CAKI-1 = system: CAKI-1
HOP-92 = system: HOP-92
RXF 393 = system: RXF 393

Measured: GI50

[O-][S+](Nc1ccccc1)c1ccc(N2CCOCC2)cc1 (configuration not stated)
13 µM: HCT-15
inactive: LOX IMVI 71 µM | HT-29 36.3 µM | IGROV-1 13.6 µM | NCI-H226 > 100 µM | NCI-H522 32.8 µM | Hs-578T > 100 µM | OVCAR-5 > 10 µM | NCI-H23 > 100 µM | SF-295 > 100 µM | MCF7 57.4 µM | ACHN 65.8 µM | T47D 13.7 µM | HOP-62 > 100 µM | UACC-257 34.2 µM | HCC 2998 91.2 µM | MDA-MB-231 86.7 µM | COLO 205 59.6 µM | SR 60.3 µM | OVCAR-4 > 100 µM | DU-145 51.4 µM | SW-620 30.1 µM | HCT-116 21.2 µM | 786-0 88.9 µM | SNB-19 > 100 µM | BT-549 6.82 µM | K562 27.3 µM | HL-60 53.8 µM | SN12C > 100 µM | UACC-62 9.12 µM | Malme-3M 36.4 µM | RPMI-8226 58.7 µM | OVCAR-3 > 100 µM | UO-31 10.8 µM | SF-539 35.8 µM | A549 43.9 µM | KM12 23.6 µM | TK-10 > 100 µM | CCRF-CEM 54.2 µM | MOLT-4 44.7 µM | NCI-H460 42.6 µM | SK-MEL-2 > 100 µM | MDA-MB-435 32.7 µM | M14 > 100 µM | OVCAR-8 > 100 µM | U-251 > 100 µM | NCI/ADR-RES 51.9 µM | EKVX 94.6 µM | SK-MEL-28 > 100 µM | SK-MEL-5 39.8 µM | SF-268 15.4 µM

O=C(NC/C(Cl)=C/Cl)Nc1cccc2c1CCCC2
> 100 µM: HCT-15
inactive: LOX IMVI > 100 µM | HT-29 38.5 µM | SK-OV-3 > 100 µM | IGROV-1 > 100 µM | NCI-H226 > 100 µM | NCI-H522 > 100 µM | A498 65.8 µM | Hs-578T > 100 µM | PC-3 74.5 µM | OVCAR-5 > 100 µM | NCI-H23 > 100 µM | SF-295 > 100 µM | MCF7 > 100 µM | MDA-N > 100 µM | ACHN > 100 µM | SNB-75 > 100 µM | T47D 97.9 µM | HOP-62 > 100 µM | UACC-257 58.9 µM | HCC 2998 > 100 µM | MDA-MB-231 > 100 µM | COLO 205 > 100 µM | SR 35.9 µM | OVCAR-4 > 100 µM | DU-145 > 100 µM | SW-620 > 100 µM | HCT-116 > 100 µM | 786-0 89.3 µM | SNB-19 > 100 µM | SN12C > 100 µM | UACC-62 > 100 µM | Malme-3M > 100 µM | RPMI-8226 49.8 µM | OVCAR-3 > 100 µM | UO-31 > 100 µM | CAKI-1 86.9 µM | SF-539 > 100 µM | A549 > 100 µM | KM12 > 100 µM | HOP-92 55.7 µM | TK-10 46.7 µM | RXF 393 > 100 µM | MOLT-4 29.5 µM | NCI-H460 83.8 µM | SK-MEL-2 > 100 µM | MDA-MB-435 > 100 µM | M14 > 100 µM | OVCAR-8 > 100 µM | U-251 > 100 µM | NCI/ADR-RES > 100 µM | EKVX 82.8 µM | SK-MEL-28 > 100 µM | SK-MEL-5 > 100 µM | SF-268 > 100 µM

COC(=O)c1c2n(c3ccccc13)C[C@H]1OC(C)(C)O[C@@H]21
> 100 µM: HCT-15
inactive: LOX IMVI > 100 µM | HT-29 > 100 µM | SK-OV-3 > 100 µM | IGROV-1 > 100 µM | NCI-H226 > 100 µM | NCI-H522 > 100 µM | A498 > 100 µM | Hs-578T > 100 µM | PC-3 > 100 µM | OVCAR-5 > 100 µM | NCI-H23 > 100 µM | SF-295 > 100 µM | MCF7 > 100 µM | ACHN > 100 µM | SNB-75 > 100 µM | T47D > 100 µM | HOP-62 > 100 µM | UACC-257 > 100 µM | HCC 2998 > 100 µM | MDA-MB-231 > 100 µM | COLO 205 > 100 µM | SR > 100 µM | OVCAR-4 > 100 µM | DU-145 > 100 µM | SW-620 > 100 µM | HCT-116 > 100 µM | 786-0 > 100 µM | SNB-19 > 100 µM | BT-549 > 100 µM | K562 > 100 µM | SN12C > 100 µM | UACC-62 > 100 µM | Malme-3M > 47 µM | RPMI-8226 > 100 µM | OVCAR-3 > 100 µM | UO-31 > 100 µM | CAKI-1 > 65.6 µM | SF-539 > 100 µM | A549 > 100 µM | KM12 > 43.8 µM | HOP-92 > 100 µM | TK-10 > 100 µM | CCRF-CEM > 100 µM | RXF 393 > 100 µM | MOLT-4 > 100 µM | NCI-H460 > 100 µM | SK-MEL-2 > 100 µM | MDA-MB-435 > 100 µM | M14 > 100 µM | OVCAR-8 > 100 µM | U-251 > 100 µM | NCI/ADR-RES > 100 µM | EKVX > 100 µM | SK-MEL-28 > 100 µM | SK-MEL-5 > 100 µM | SF-268 > 100 µM

CC12CCC(CC(=O)/C1=C(/Br)I)C2(C)C (configuration not stated)
10.9 µM: HCT-15
inactive: HT-29 11.4 µM | SK-OV-3 20.7 µM | IGROV-1 16.9 µM | NCI-H226 13.8 µM | A498 19.3 µM | Hs-578T 18.7 µM | PC-3 11.1 µM | OVCAR-5 2.02 µM | NCI-H23 13.5 µM | MDA-N 12.2 µM | ACHN 18.2 µM | SNB-75 16.3 µM | T47D 21.7 µM | HOP-62 17.9 µM | UACC-257 16.2 µM | MDA-MB-231 5.57 µM | COLO 205 17.2 µM | SR 15.8 µM | OVCAR-4 15.1 µM | DU-145 17.7 µM | SW-620 17 µM | HCT-116 12.4 µM | 786-0 16.1 µM | SNB-19 15.3 µM | K562 11.2 µM | HL-60 3.43 µM | SN12C 15.8 µM | UACC-62 14.5 µM | Malme-3M 12.7 µM | RPMI-8226 6.25 µM | OVCAR-3 13.6 µM | UO-31 18.2 µM | CAKI-1 16.9 µM | SF-539 15.7 µM | A549 14.6 µM | KM12 17.9 µM | HOP-92 17.3 µM | TK-10 18.8 µM | CCRF-CEM 14.3 µM | RXF 393 4.6 µM | MOLT-4 7.18 µM | NCI-H460 > 100 µM | SK-MEL-2 13.7 µM | MDA-MB-435 13.7 µM | M14 14.4 µM | OVCAR-8 17.8 µM | NCI/ADR-RES 15.3 µM | EKVX 19.5 µM | SK-MEL-28 16.2 µM | SK-MEL-5 11.4 µM | SF-268 14.6 µM
active: LOX IMVI 0.0789 µM | SF-295 0.31 µM

CC1(C)N=c2c(ncn2-c2ccccc2)=C(C(N)=O)N1
inactive: LOX IMVI > 100 µM | HT-29 > 100 µM | SK-OV-3 > 100 µM | IGROV-1 > 100 µM | NCI-H226 > 100 µM | NCI-H522 > 100 µM | A498 > 100 µM | Hs-578T > 100 µM | PC-3 > 100 µM | OVCAR-5 > 100 µM | NCI-H23 > 100 µM | SF-295 > 100 µM | MCF7 > 100 µM | MDA-N > 100 µM | ACHN > 100 µM | SNB-75 > 100 µM | T47D > 100 µM | HOP-62 > 100 µM | UACC-257 > 100 µM | HCC 2998 > 100 µM | MDA-MB-231 > 100 µM | COLO 205 > 100 µM | SR > 100 µM | OVCAR-4 > 100 µM | DU-145 > 100 µM | SW-620 > 100 µM | HCT-116 > 100 µM | 786-0 > 100 µM | SNB-19 > 100 µM | K562 > 100 µM | HL-60 > 100 µM | SN12C > 100 µM | UACC-62 > 100 µM | Malme-3M > 100 µM | RPMI-8226 > 100 µM | OVCAR-3 > 100 µM | CAKI-1 > 100 µM | SF-539 > 100 µM | A549 > 100 µM | KM12 > 100 µM | TK-10 > 100 µM | CCRF-CEM > 100 µM | RXF 393 > 100 µM | NCI-H460 > 100 µM | SK-MEL-2 > 100 µM | MDA-MB-435 > 100 µM | M14 > 100 µM | OVCAR-8 > 100 µM | U-251 > 100 µM | NCI/ADR-RES > 100 µM | EKVX > 100 µM | SK-MEL-28 > 100 µM | SK-MEL-5 > 100 µM | SF-268 > 100 µM
> 100 µM: HCT-15
